US7148353B2 (priority 2003, dated 2006)

test system: not listed separately; assay: maze test, which tests anxiety; assay type: in vivo; settings: at 10 mg/kg
Protocol: The compounds of Example 1d (also found in Example 6d), Example 22d, and Example 35d, were also tested in vivo using the maze test, which tests anxiety [Montgomery, J. Comparative and Physiological Psychology 48, 254–60 (1955); Handley et al., Naunyn-Schmiedeberg's Archives of Pharmacology 327, 1–5 (1984); Lister, Psychopharm. 92, 180–85 (1987); Pellow et al., J. Neuroscience Methods 14, 149–67 (1985); Rodgers et al., Ethology and Psychopharmacology, S. J. Cooper and C. A. Hendrie (eds), John Wiley & Sons, Ltd., 9–43 (1994); and Trullas et al., Psychopharm. 111, 323–31 (1993)]. The results of the maze test for these compounds are found in FIGS. 1a, 1b, 2a, 2b, 3a, and 3b. FIGS. 1a, 2a, and 3a are graphs of the Number of Entries in Open Arms vs. mg/kg (dose of administered compound). FIGS. 1b, 2b, and 3b plot the Percent of Time Spent in Open Arms vs. mg/kg (dose of administered compound). […] The results of the maze test are accepted by persons of skill in the art as predictive of therapeutic utility.

Compound	maze test activity (Number of Entries in Open Arms, Percent of Time Spent in Open Arms)
Cc1ccc(-c2nc3ccc(C)cn3c2CC(=O)c2cccs2)cc1 [Example 1d, 2-(6-Methyl-2-p-tolyl-imidazo[1,2-a]pyridin-3-yl)-1-thiophen-2-yl-ethanone]	statistically significant activity
COc1ccsc1C(=O)Cc1c(-c2ccc(C)cc2)nc2ccc(C)cn12 [Example 22d, 1-(3-Methoxy-thiophen-2-yl)-2-(6-methyl-2-p-tolyl-imidazo[1,2-a]pyridin-3-yl)-ethanone]	statistically significant activity

target: peripheral benzodiazepine receptors (Rattus norvegicus, UniProt P16257); assay: biochemical; assay type: binding; settings: IC50 (nM) peripheral, Table 1a
Sequence (P16257 whole entry): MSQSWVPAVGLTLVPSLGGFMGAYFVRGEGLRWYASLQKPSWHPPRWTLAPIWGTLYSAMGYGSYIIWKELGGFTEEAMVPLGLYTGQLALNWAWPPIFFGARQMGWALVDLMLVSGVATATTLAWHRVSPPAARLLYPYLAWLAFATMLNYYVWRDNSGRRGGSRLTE
Protocol: Compounds of the invention were assessed for their binding to the benzodiazepine receptor by the test of Speth et al. [Life Sci. 24, 351 (1979)] for central benzodiazepine receptors and LeFur et al. [Life Sci. 33, 449 (1983)] for peripheral receptors. The compounds were tested first at 1.0E-09, 1.0E-07 and 1.0E-05 M in single determination. […] The specific ligand binding to the receptor is defined as the difference between the total binding and the nonspecific binding determined in the presence of an excess of unlabelled ligand. In each experiment, the respective reference compound was tested concurrently with the test compounds in order to assess the assay suitability. It was tested at several concentrations (for IC50 value determination), and the data were compared with historical values. The assay was rendered valid if suitability criteria were met.

Compound	IC50 [nM]
Cc1ccc(-c2nc3ccc(C)cn3c2CC(=O)c2ccc(Cl)cc2)cc1 [Example 3d, 1-(4-Chloro-phenyl)-2-(6-methyl-2-p-tolyl-imidazo[1,2-a]pyridin-3-yl)-ethanone]	594
Cc1ccc(-c2nc3ccc(C)cn3c2CC(=O)c2ccccc2)cc1 [Example 4d, 2-(6-Methyl-2-p-tolyl-imidazo[1,2-a]pyridin-3-yl)-1-phenyl-ethanone]	386

same assay, conditions: Table 1a; read-out: IC50 (nM) peripheral

Compound	IC50 [nM]
Cc1ccc(-c2nc3ccc(C)cn3c2CC(=O)C2CCCC2)cc1	310
Cc1ccc(-c2nc3ccc(C)cn3c2CC(=O)C(C)C)cc1	820
Cc1ccc(-c2nc3ccc(C)cn3c2CC(=O)C2CC2)cc1	560
Cc1ccc(-c2nc3ccc(C)cn3c2CC(=O)c2ccsc2)cc1	240
Cc1ccc(-c2nc3ccc(C)cn3c2CC(=O)c2nccs2)cc1	1600
Cc1ccc(-c2nc3ccc(C)cn3c2CC(=O)c2ccco2)cc1	1600
Cc1ccc(-c2nc3ccc(C)cn3c2CC(=O)c2cncnc2)cc1	3400
Cc1ccc(-c2nc3ccc(C)cn3c2CC(=O)c2sc(C)nc2C)cc1	2000
Cc1ccc(-c2nc3ccc(C)cn3c2CC(=O)c2ccoc2)cc1	400
Cc1ccc(-c2nc3ccc(C)cn3c2CC(=O)c2c(C)nn(C)c2C)cc1	> 10000
Cc1ccc(-c2nc3ccc(C)cn3c2CC(=O)c2nn(-c3ccccc3)nc2C)cc1	7600
Cc1ccc(-c2nc3ccc(C)cn3c2CC(=O)c2c(C)nn(-c3ccccc3)c2C)cc1	> 10000
Cc1ccc(-c2nc3ccc(C)cn3c2CC(=O)c2c(C)nc3cc(C)ccn23)cc1	210
Cc1ccc(-c2nc3ccc(C)cn3c2CC(=O)c2cc3ccccc3s2)cc1	220
Cc1ccc(-c2nc3ccc(C)cn3c2CC(=O)c2cc3c(C)nn(C)c3s2)cc1	2100
Cc1ccc(-c2nc3ccc(C)cn3c2CC(=O)Cc2cccs2)cc1	59
Cc1ccc(-c2nc3ccc(C)cn3c2CC(=O)C2COc3ccccc3O2)cc1 (stereo not shown)	32
Cc1ccc(-c2nc3ccc(C)cn3c2CC(=O)c2snnc2C)cc1	320
Cc1ccc(-c2nc3ccc(C)cn3c2CC(=O)c2sccc2Cl)cc1	840
Cc1ccc(-c2nc3ccc(C)cn3c2CC(=O)c2cncn2C)cc1	3100
Cc1ccc(-c2nc3ccc(C)cn3c2CC(=O)c2c(C)noc2C)cc1	1200

Compound	IC50 [nM]
Cc1ccc(-c2nc3ccc(C)cn3c2CC(=O)c2scc(S(C)(=O)=O)c2Cl)cc1	730
Cc1ccc(-c2nc3ccc(C)cn3c2CC(=O)c2cc(C)nn2C)cc1	810
Cc1ccc(-c2nc3ccc(C)cn3c2CC(=O)c2cc(C)on2)cc1	560
Cc1ccc(-c2nc3ccc(C)cn3c2CC(=O)c2cn(C)cn2)cc1	> 10000
Cc1ccc(-c2nc3ccc(C)cn3c2CC(=O)c2csc(-c3cccs3)n2)cc1	> 10000
Cc1ccc(-c2nc3ccc(C)cn3c2CC(=O)c2sccc2C)cc1	230
Cc1ccc(-c2nc3ccc(C)cn3c2CC(=O)c2nsc(Cl)c2Cl)cc1	1700
Cc1ccc(-c2nc3ccc(C)cn3c2CC(=O)c2ccc(C)s2)cc1	1800
Cc1ccc(-c2nc3ccc(C)cn3c2CC(=O)c2cc(C)n(C)n2)cc1	1300
Cc1ccc(-c2nc3ccc(C)cn3c2CC(=O)c2nccn2C)cc1	> 10000
CCn1nc(C)c(Br)c1C(=O)Cc1c(-c2ccc(C)cc2)nc2ccc(C)cn12	2100
Cc1ccc(-c2nc3ccc(C)cn3c2CC(=O)c2nnn(C)c2C)cc1	> 10000
CSc1ccc(C(=O)Cc2c(-c3ccc(C)cc3)nc3ccc(C)cn23)s1	6000
Cc1ccc(-c2nc3ccc(C)cn3c2CC(=O)c2cn(-c3cccc(C)n3)cn2)cc1	6600
Cc1ccc(-c2nc3ccc(C)cn3c2CC(=O)CCc2ccccc2)cc1	290
CC(=O)Cc1c(-c2ccc(C)cc2)nc2ccc(C)cn12 [Example 2d, 1-(6-Methyl-2-p-tolyl-imidazo[1,2-a]pyridin-3-yl)-propan-2-one]	231
CCCCCC(=O)Cc1c(-c2ccc(C)cc2)nc2ccc(C)cn12 [Example 5d, 1-(6-Methyl-2-p-tolyl-imidazo[1,2-a]pyridin-3-yl)-heptan-2-one]	269
Cc1ccc(-c2nc3ccc(C)cn3c2CC(=O)c2cccs2)cc1 [drawing 97]	153
COc1ccsc1C(=O)Cc1c(-c2ccc(C)cc2)nc2ccc(C)cn12 [drawing 131]	180
Cc1ccc(-c2nc3ccc(C)cn3c2CC(=O)CC(C)C)cc1 [—CH2CH(CH3)2]	820

same assay, conditions: Table 1b; read-out: IC50 (nM) peripheral

Compound	IC50 [nM]
Cc1cc(Cl)cn2c(CC(=O)c3ccoc3)c(-c3ccc(Cl)cc3)nc12	350
Cc1cc(Cl)cn2c(CC(=O)c3cccs3)c(-c3ccc(Cl)cc3)nc12	590
O=C(Cc1c(-c2ccc(Cl)cc2)nc2ccccn12)c1cccs1	2600
O=C(Cc1c(-c2ccc(Cl)cc2)nc2ccc(Cl)cn12)c1cccs1	290
COc1ccc(-c2nc3ccc(C)cn3c2CC(=O)c2cc(C)nn2C)cc1	2300
COc1ccc(-c2nc3ccc(C)cn3c2CC(=O)c2cccs2)cc1	2400

same assay, conditions: Table 2; read-out: IC50 (nM) peripheral

Compound	IC50 [nM]
Cc1ccc(-c2nc3ccc(C)cn3c2C2CCCNC2=O)cc1 (stereo not shown)	> 10000
Cc1ccc(-c2nc3ccc(C)cn3c2C2CC=CCN(C)C2=O)cc1 (stereo not shown)	210
Cc1ccc(-c2nc3ccc(C)cn3c2C2CCCN(C)C2=O)cc1 (stereo not shown) [drawing 151]	1240
Cc1ccc(-c2nc3ccc(C)cn3c2C2CCCN(C)C2=O)cc1 (stereo not shown) [drawing 155]	1500
Cc1ccc(-c2nc3ccc(C)cn3c2C2CCCN(C)C2=O)cc1 (stereo not shown) [drawing 156]	> 10000

target: central benzodiazepine receptors; assay: binding to central benzodiazepine receptors, displacement of 3H-flunitrazepam (test of Speth et al.); settings: Table 1a

Compound	IC50 [nM]
CC(=O)Cc1c(-c2ccc(C)cc2)nc2ccc(C)cn12 [Example 2d, 1-(6-Methyl-2-p-tolyl-imidazo[1,2-a]pyridin-3-yl)-propan-2-one]	439
Cc1ccc(-c2nc3ccc(C)cn3c2CC(=O)c2ccc(Cl)cc2)cc1 [Example 3d, 1-(4-Chloro-phenyl)-2-(6-methyl-2-p-tolyl-imidazo[1,2-a]pyridin-3-yl)-ethanone]	4060
Cc1ccc(-c2nc3ccc(C)cn3c2CC(=O)c2ccccc2)cc1 [Example 4d, 2-(6-Methyl-2-p-tolyl-imidazo[1,2-a]pyridin-3-yl)-1-phenyl-ethanone]	1750
CCCCCC(=O)Cc1c(-c2ccc(C)cc2)nc2ccc(C)cn12 [Example 5d, 1-(6-Methyl-2-p-tolyl-imidazo[1,2-a]pyridin-3-yl)-heptan-2-one]	420
Cc1ccc(-c2nc3ccc(C)cn3c2CC(=O)CC(C)C)cc1 [—CH2CH(CH3)2]	> 10000
